Publication PMC8155022 (Scientific Reports, 2021)

Legend:
AR = biological target: T1, AR (Homo sapiens, UniProt P10275); experiment: nuclear receptor cellular GAL4 reporter assay; assay type: cell-based; settings: agonist and antagonist mode; read-out: potency in agonist and antagonist mode
T1 construct: expressed in transfected cells

hNav1.5 = hNav1.5 (Homo sapiens, UniProt Q14524); experiment: follow-up functional study; assay type: cell-based; settings: read-out: IC50 in follow-up functional studies
CCR1 (h) = biological target: T2, CCR1 (h) (Homo sapiens, UniProt P32246); experiment: Cerep panel; assay type: binding
T2 construct: purchased Cerep (receptors, ion channels, transporters); Eurofins Panlabs (kinases)
Description: (§1) A panel of 52 different receptors, ion channels and transporters was tested by Cerep, Inc. (Redmond, WA).

PKA(h) = biological target: T3, PKA(h) (Homo sapiens, UniProt P17612); experiment: Kinase panel; assay type: biochemical
T3 construct: purchased Cerep (receptors, ion channels, transporters); Eurofins Panlabs (kinases)
Description: (§2) Kinase selectivity was conducted by Eurofins Panlabs Inc (St Charles, MO).

GAL2 (h) = biological target: T4, GAL2 (h) (Homo sapiens, UniProt O43603); experiment: Cerep panel; assay type: binding
T4 construct: purchased Cerep (receptors, ion channels, transporters); Eurofins Panlabs (kinases)
Description: as §1

GSK3β(h) = biological target: T5, GSK3β(h) (Homo sapiens, UniProt P49841); experiment: Kinase panel; assay type: biochemical
T5 construct: purchased Cerep (receptors, ion channels, transporters); Eurofins Panlabs (kinases)
Description: as §2

A3 (h) = biological target: T6, A3 (h) (Homo sapiens, UniProt P0DMS8); experiment: Cerep panel; assay type: binding
T6 construct: purchased Cerep (receptors, ion channels, transporters); Eurofins Panlabs (kinases)
T6 sequence (P0DMS8 1-318): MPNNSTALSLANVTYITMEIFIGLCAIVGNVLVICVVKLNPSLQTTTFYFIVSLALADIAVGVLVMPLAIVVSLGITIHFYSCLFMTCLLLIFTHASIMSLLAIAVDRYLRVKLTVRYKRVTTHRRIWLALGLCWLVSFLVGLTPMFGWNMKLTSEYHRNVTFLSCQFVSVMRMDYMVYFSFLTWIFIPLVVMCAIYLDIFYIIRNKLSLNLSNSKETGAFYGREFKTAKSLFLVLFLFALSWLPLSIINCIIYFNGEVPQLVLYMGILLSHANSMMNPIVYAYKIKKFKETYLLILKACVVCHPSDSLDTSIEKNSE
Description: (§3) 28 GPCRs were evaluated through cAMP or calcium FLIPR assays[67]. A panel of 52 different receptors, ion channels and transporters was tested by Cerep, Inc. (Redmond, WA). Kinase selectivity was conducted by Eurofins Panlabs Inc (St Charles, MO).

kappa (KOP) = biological target: T7, kappa (KOP) (Rattus norvegicus, UniProt P34975); experiment: Cerep panel; assay type: binding
T7 construct: purchased Cerep (receptors, ion channels, transporters); Eurofins Panlabs (kinases)
Description: as §1

RXRα = biological target: T8, RXRα (Homo sapiens, UniProt P19793); experiment: nuclear receptor cellular GAL4 reporter assay; assay type: cell-based; settings: agonist and antagonist mode; read-out: potency in agonist and antagonist mode
T8 construct: expressed in transfected cells

D2S (h) = biological target: T9, D2S (h) (Homo sapiens, UniProt P14416); experiment: Cerep panel; assay type: binding
T9 construct: purchased Cerep (receptors, ion channels, transporters); Eurofins Panlabs (kinases)
Description: as §1

GSK3α(h) = biological target: T10, GSK3α(h) (Homo sapiens, UniProt P49840); experiment: Kinase panel; assay type: biochemical
T10 construct: purchased Cerep (receptors, ion channels, transporters); Eurofins Panlabs (kinases)
Description: as §2

5HT7 = 5HT7 (Homo sapiens, UniProt P34969); experiment: GPCR panel, cAMP or calcium FLIPR assays; assay type: cell-based
Description: (§4) 28 GPCRs were evaluated through cAMP or calcium FLIPR assays[67].

5HT2C = 5HT2C (Homo sapiens, UniProt P28335); experiment: GPCR panel, cAMP or calcium FLIPR assays; assay type: cell-based
Description: as §4

M2 = M2 (Homo sapiens, UniProt P08172); experiment: GPCR panel, cAMP or calcium FLIPR assays; assay type: cell-based
Description: as §4

[1] = test system: CD4+ T cells under Treg polarizing conditions; experiment: in vitro human Treg differentiation, FOXP3 gene expression; assay type: cell-based; settings: 6 days
From the text: Supplement Materials and Methods
In vitro human Treg differentiation
Human nTreg Suppressive Assay

Plk1(h) = biological target: T11, Plk1(h) (Homo sapiens, UniProt P53350); experiment: Kinase panel; assay type: biochemical
T11 construct: purchased Cerep (receptors, ion channels, transporters); Eurofins Panlabs (kinases)
Description: as §2

5-HT7 (h) = biological target: T12, 5-HT7 (h) (Homo sapiens, UniProt P34969); experiment: Cerep panel; assay type: binding
T12 construct: purchased Cerep (receptors, ion channels, transporters); Eurofins Panlabs (kinases)
Description: as §1

CaMKIIβ(h) = biological target: T13, CaMKIIβ(h) (Homo sapiens, UniProt Q13554); experiment: Kinase panel; assay type: biochemical
T13 construct: purchased Cerep (receptors, ion channels, transporters); Eurofins Panlabs (kinases)
Description: as §2

5-HT2A (h) = biological target: T14, 5-HT2A (h) (Homo sapiens, UniProt P28223); experiment: Cerep panel; assay type: binding
T14 construct: purchased Cerep (receptors, ion channels, transporters); Eurofins Panlabs (kinases)
Description: as §1

beta 1 (h) = biological target: T15, beta 1 (h) (Homo sapiens, UniProt P08588); experiment: Cerep panel; assay type: binding
T15 construct: purchased Cerep (receptors, ion channels, transporters); Eurofins Panlabs (kinases)
Description: as §1

CDK5/p35(h) = biological target: T16, CDK5/p35(h) (Homo sapiens, UniProt Q00535); experiment: Kinase panel; assay type: biochemical
T16 construct: purchased Cerep (receptors, ion channels, transporters); Eurofins Panlabs (kinases)
Description: as §2

A3 = biological target: T17, A3 (Homo sapiens, UniProt P0DMS8); experiment: GPCR panel, cAMP or calcium FLIPR assays; assay type: cell-based
T17 sequence (P0DMS8 1-318): T6 sequence (P0DMS8 1-318)
Description: as §4

NK2 (h) = biological target: T18, NK2 (h) (Homo sapiens, UniProt P21452); experiment: Cerep panel; assay type: binding
T18 construct: purchased Cerep (receptors, ion channels, transporters); Eurofins Panlabs (kinases)
T18 sequence (P21452 1-398): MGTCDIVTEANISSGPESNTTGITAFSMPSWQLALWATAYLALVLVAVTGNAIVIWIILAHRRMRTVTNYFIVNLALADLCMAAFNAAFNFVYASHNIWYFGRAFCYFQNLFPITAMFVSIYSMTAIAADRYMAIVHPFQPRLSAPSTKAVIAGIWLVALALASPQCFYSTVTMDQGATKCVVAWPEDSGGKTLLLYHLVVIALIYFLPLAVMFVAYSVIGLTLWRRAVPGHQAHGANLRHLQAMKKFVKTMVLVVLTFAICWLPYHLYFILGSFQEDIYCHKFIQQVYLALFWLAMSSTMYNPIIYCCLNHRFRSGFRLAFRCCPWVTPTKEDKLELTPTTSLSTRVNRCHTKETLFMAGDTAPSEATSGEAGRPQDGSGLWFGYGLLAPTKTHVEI
Description: as §3

[2] = modeled plasma exposure in the CIA model; assay type: in vivo, mouse
SAPK3(h) = biological target: T19, SAPK3(h) (Homo sapiens, UniProt P53778); experiment: Kinase panel; assay type: biochemical
T19 construct: purchased Cerep (receptors, ion channels, transporters); Eurofins Panlabs (kinases)
Description: as §2

CHK1(h) = biological target: T20, CHK1(h) (Homo sapiens, UniProt O14757); experiment: Kinase panel; assay type: biochemical
T20 construct: purchased Cerep (receptors, ion channels, transporters); Eurofins Panlabs (kinases)
T20 sequence (O14757 whole entry): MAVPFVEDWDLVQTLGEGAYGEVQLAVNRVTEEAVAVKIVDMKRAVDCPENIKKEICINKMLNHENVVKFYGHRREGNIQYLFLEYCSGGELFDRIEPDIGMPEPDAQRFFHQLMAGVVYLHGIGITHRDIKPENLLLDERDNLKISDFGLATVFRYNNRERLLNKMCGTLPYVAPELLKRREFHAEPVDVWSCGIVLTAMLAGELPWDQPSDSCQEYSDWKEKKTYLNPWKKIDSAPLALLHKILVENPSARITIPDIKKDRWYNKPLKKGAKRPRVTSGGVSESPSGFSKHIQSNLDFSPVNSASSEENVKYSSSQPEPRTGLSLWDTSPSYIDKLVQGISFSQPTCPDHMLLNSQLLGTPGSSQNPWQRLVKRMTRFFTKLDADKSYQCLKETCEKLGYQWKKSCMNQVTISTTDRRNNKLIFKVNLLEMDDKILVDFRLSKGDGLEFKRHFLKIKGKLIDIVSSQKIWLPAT
Description: as §2

Sequence of M2 (P08172 whole entry): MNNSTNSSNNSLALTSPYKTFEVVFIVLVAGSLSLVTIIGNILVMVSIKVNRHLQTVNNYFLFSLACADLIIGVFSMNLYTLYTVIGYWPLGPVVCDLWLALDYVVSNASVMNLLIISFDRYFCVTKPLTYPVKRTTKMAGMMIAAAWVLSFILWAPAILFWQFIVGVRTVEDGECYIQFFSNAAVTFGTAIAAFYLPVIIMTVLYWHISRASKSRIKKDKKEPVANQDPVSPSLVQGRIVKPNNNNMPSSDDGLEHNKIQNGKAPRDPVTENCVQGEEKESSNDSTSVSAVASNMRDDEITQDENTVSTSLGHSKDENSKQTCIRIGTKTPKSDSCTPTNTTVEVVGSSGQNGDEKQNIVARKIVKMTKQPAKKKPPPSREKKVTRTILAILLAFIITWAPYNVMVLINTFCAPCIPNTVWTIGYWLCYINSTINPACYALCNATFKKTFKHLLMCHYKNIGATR
Sequence of 5HT7 (P34969 whole entry): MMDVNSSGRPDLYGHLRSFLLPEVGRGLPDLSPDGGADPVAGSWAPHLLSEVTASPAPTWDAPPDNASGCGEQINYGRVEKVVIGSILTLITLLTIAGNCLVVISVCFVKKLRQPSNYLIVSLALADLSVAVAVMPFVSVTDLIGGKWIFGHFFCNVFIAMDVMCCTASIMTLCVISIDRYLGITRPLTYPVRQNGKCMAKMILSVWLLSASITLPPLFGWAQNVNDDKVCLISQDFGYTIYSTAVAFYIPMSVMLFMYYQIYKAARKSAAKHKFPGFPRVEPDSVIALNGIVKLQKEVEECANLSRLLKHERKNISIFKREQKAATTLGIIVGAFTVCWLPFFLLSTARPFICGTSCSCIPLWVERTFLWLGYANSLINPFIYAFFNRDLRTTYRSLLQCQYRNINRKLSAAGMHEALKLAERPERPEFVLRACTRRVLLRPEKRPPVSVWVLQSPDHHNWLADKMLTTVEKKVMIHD
T12 sequence (P34969 whole entry): as above
T14 sequence (P28223 whole entry): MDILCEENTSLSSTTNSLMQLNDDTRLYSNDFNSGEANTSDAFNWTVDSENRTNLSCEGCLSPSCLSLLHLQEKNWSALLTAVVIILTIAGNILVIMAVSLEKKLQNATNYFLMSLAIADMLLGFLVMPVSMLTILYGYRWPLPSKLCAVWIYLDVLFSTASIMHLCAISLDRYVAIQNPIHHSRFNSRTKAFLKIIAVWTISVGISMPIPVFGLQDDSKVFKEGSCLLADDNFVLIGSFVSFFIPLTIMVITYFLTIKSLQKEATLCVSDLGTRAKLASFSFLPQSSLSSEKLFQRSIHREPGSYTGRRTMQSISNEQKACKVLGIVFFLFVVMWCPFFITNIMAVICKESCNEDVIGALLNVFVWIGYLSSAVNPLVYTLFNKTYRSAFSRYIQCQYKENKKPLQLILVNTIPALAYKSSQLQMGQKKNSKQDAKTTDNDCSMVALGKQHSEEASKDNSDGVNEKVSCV
T5 sequence (P49841 whole entry): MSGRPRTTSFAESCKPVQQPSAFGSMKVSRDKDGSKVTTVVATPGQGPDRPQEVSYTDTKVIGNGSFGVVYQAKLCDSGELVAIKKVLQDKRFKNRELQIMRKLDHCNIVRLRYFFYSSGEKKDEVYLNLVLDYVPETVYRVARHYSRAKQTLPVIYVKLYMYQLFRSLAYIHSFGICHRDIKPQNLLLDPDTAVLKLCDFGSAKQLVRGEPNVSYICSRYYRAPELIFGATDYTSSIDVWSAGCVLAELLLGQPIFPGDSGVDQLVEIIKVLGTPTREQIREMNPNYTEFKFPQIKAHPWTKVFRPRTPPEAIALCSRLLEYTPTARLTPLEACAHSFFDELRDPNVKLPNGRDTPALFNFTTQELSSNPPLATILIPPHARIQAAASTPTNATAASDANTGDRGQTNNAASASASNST
T2 sequence (P32246 whole entry): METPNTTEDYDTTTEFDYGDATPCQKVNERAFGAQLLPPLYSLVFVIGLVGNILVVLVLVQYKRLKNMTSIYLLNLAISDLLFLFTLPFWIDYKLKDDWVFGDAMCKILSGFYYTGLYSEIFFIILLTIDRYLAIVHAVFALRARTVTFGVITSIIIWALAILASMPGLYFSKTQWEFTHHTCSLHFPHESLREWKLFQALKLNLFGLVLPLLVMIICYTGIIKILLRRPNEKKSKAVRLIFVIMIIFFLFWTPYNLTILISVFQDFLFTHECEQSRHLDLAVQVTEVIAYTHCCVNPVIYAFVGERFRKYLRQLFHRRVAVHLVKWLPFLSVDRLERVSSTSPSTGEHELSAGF
T19 sequence (P53778 whole entry): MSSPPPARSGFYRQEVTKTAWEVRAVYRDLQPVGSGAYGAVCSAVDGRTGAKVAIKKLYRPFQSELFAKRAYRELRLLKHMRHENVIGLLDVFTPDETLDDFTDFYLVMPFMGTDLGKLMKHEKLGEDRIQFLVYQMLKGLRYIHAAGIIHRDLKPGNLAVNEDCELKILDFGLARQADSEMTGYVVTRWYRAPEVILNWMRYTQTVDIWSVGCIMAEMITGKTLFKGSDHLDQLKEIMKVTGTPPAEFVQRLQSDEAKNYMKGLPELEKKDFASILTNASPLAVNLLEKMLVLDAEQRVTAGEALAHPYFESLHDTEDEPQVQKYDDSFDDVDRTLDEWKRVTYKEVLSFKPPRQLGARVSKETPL
T16 sequence (Q00535 whole entry): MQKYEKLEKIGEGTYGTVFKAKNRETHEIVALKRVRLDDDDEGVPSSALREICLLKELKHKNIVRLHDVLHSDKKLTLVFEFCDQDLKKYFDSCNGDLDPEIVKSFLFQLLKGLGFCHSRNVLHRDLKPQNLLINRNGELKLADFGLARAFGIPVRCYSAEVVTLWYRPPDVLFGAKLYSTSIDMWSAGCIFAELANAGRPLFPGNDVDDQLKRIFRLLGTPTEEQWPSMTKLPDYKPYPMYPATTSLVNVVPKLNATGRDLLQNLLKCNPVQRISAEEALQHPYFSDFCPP
T16 sequence (Q15078 whole entry partner): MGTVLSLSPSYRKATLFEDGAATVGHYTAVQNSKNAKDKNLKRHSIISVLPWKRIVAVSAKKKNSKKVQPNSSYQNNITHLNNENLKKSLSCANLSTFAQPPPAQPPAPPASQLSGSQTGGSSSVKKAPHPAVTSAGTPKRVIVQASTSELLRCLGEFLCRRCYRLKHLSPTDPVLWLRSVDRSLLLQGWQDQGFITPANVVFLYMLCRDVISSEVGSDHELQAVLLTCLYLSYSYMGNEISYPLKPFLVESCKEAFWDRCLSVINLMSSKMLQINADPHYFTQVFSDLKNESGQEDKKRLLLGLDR
T11 sequence (P53350 whole entry): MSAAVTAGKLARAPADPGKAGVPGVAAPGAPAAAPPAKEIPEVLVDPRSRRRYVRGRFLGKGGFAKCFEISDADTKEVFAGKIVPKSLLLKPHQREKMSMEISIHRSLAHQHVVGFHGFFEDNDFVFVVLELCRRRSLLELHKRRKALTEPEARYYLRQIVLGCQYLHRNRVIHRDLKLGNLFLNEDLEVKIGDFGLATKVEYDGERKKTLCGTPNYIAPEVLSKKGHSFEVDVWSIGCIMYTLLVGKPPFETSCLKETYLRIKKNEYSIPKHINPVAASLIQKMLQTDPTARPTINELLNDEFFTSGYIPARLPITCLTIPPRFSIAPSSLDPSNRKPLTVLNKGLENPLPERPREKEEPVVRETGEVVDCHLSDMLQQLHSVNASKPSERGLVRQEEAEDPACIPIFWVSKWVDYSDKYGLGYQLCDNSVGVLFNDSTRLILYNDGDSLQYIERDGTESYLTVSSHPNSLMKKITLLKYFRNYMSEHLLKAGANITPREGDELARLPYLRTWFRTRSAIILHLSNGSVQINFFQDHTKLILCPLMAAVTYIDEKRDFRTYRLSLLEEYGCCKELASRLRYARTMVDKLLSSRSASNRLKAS
T13 sequence (Q13554 whole entry): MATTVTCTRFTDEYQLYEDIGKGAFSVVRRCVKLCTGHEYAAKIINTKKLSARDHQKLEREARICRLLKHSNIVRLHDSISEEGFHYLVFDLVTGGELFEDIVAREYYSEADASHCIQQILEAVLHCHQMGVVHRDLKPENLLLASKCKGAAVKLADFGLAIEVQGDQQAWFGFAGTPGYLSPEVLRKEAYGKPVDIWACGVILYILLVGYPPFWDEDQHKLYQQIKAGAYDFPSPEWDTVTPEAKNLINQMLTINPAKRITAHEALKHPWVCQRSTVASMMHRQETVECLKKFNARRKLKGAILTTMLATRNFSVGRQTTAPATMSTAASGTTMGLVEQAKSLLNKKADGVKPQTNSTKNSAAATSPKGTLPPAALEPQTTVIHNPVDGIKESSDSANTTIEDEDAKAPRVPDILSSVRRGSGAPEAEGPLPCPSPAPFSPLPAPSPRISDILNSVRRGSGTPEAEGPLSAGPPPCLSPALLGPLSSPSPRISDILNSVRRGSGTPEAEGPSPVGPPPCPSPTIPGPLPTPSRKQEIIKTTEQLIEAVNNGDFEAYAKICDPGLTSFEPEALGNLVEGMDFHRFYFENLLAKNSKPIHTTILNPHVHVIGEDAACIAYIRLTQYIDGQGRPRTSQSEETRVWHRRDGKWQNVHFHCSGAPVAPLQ

CC1CCCN1C(=O)c1nc(C(=O)NCC(C)(C)O)sc1-c1ccc(C(O)(C(F)(F)F)C(F)(F)F)c(Cl)c1Cl (stereo not shown) [JNJ-61803534]
IC50 (AR): > 1.5 µM | IC50 (hNav1.5): > 30 µM | inhibition at 1 µM (CCR1 (h)): < 10% | inhibition at 10 µM (CCR1 (h)): < 10% | activity at 1 µM (PKA(h)): 85% | activity at 10 µM (PKA(h)): 88% | inhibition at 1 µM (GAL2 (h)): < 10% | inhibition at 10 µM (GAL2 (h)): < 10% | activity at 1 µM (GSK3β(h)): 111% | activity at 10 µM (GSK3β(h)): 105% | inhibition at 1 µM (A3 (h); 1 µM): < 10% | % Inhibition at 10 µM (A3 (h); 10 µM): 45.2% | inhibition at 10 µM (A3 (h); 10 µM): > 50% | inhibition at 1 µM (kappa (KOP)): < 10% | inhibition at 10 µM (kappa (KOP)): < 10% | IC50 (RXRα): > 1.5 µM | inhibition at 1 µM (D2S (h)): < 10% | inhibition at 10 µM (D2S (h)): < 10% | activity at 1 µM (GSK3α(h)): 93% | activity at 10 µM (GSK3α(h)): 104% | EC50 (5HT7; agonist): > 12.5 µM | IC50 (5HT7; antagonist): > 12.5 µM | EC50 (5HT2C; agonist): > 10 µM | IC50 (5HT2C; antagonist): > 10 µM | EC50 (M2; agonist): > 12.5 µM | IC50 (M2; antagonist): > 12.5 µM | FOXP3 expression levels versus DMSO-treated cells [1]: similar | activity at 1 µM (Plk1(h)): 111% | activity at 10 µM (Plk1(h)): 104% | inhibition at 1 µM (5-HT7 (h)): < 10% | inhibition at 10 µM (5-HT7 (h)): < 10% | activity at 1 µM (CaMKIIβ(h)): 89% | activity at 10 µM (CaMKIIβ(h)): 92% | inhibition at 1 µM (5-HT2A (h)): < 10% | inhibition at 10 µM (5-HT2A (h)): < 10% | inhibition at 1 µM (beta 1 (h)): < 10% | inhibition at 10 µM (beta 1 (h)): < 10% | activity at 1 µM (CDK5/p35(h)): 97% | activity at 10 µM (CDK5/p35(h)): 107% | EC50 (A3; agonist): > 12.5 µM | IC50 (A3; antagonist): > 12.5 µM | inhibition at 1 µM (NK2 (h); 1 µM): < 10% | % Inhibition at 10 µM (NK2 (h); 10 µM): 54.8% | inhibition at 10 µM (NK2 (h); 10 µM): > 50% | Caverage ([2]; 3 mg/kg BID): 702 nM | Ctrough ([2]; 3 mg/kg BID): 74 nM | Caverage ([2]; 10 mg/kg BID): 2032 nM | Ctrough ([2]; 10 mg/kg BID): 211 nM | Caverage ([2]; 30 mg/kg BID): 6909 nM | Ctrough ([2]; 30 mg/kg BID): 716 nM | Caverage ([2]; 60 mg/kg QD): 6909 nM | Ctrough ([2]; 60 mg/kg QD): 26 nM | Caverage ([2]; 100 mg/kg BID): 20321 nM | Ctrough ([2]; 100 mg/kg BID): 2106 nM | activity at 1 µM (SAPK3(h)): 106% | activity at 10 µM (SAPK3(h)): 112% | activity at 1 µM (CHK1(h)): 97% | activity at 10 µM (CHK1(h)): 132%
